These results are taken from patent publication US10639284B2, “Immunomodulator compounds” (CHEMOCENTRYX, INC., priority 2016, dated 2020).

This experiment deals with human PD-L1 / Human PD-1 (Homo sapiens (Human), UniProt Q9NZQ7). The experiment is described as follows: Enzyme-Linked Immunosorbent Assay (ELISA), PD-1/PD-L1 binding. The following applies: plate-coated human PD-L1, biotinylated human PD-1, read-out: ELISA IC50. The protocol:
Plates were coated with 1 μg/mL of human PD-L1 (obtained from R&D) in PBS overnight at 4° C. The wells were then blocked with PBS containing 2% BSA in PBS (W/V) with 0.05% TWEEN-20 for 1 hour at 37° C. The plates were washed 3 times with PBS/0.05% TWEEN-20 and the samples were diluted to 1:5 in dilution medium in the ELISA plates. Human PD-1 and biotin 0.3 μg/mL (ACRO Biosystems) were added and incubated for 1 hour at 37° C. then washed 3 times with PBS/0.05% TWEEN-20. A second block was added with PBS containing 2% BSA in PBS (W/V)/0.05% TWEEN-20 for 10 min at 37° C. and was washed 3 times with PBS/0.05% TWEEN-20. Streptavidin-HRP was added for 1 hour at 37° C. then washed 3 times with PBS/0.05% TWEEN-20. TMB substrate was added and reacted for 20 min at 37° C. A stop solution (2 N aqueous H2SO4) was added. The absorbance was read at 450 nm using a micro-plate spectrophotometer.
Compounds in Table 2 and Table 3 were prepared by methods as described in the Examples, and evaluated according to the assay below.
Background: ELISA stands for enzyme-linked immunosorbent assay.

Like-named read-outs stand apart in the source and are kept apart here. A value given as a limit tells only on which side of the number the result lay.

Chain of human PD-L1 / Human PD-1 (Q9NZQ7 19-239): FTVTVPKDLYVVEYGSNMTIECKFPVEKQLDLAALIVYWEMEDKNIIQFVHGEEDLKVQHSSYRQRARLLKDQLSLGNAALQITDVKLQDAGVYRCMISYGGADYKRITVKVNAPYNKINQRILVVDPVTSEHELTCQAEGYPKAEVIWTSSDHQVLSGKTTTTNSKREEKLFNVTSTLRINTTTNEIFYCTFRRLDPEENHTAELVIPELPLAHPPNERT

Regarding `C[C@H](NC(=O)[C@H](CO)NCc1cc(Cl)c(O[C@H]2CCc3c(-c4ccccc4F)cccc32)cc1OCc1cncc(C#N)c1)C(=O)O` [Example 3.049], the IC50 (in general, the midpoint of a concentration-inhibition curve) (Table 3) is below 100 nM. On to `N#Cc1cncc(COc2cc(OC3CCc4c(-c5ccccc5)cccc43)c(Cl)cc2CN2CCCC[C@H]2C(=O)O)c1` (stereo partly drawn) [Example 1.005], for which the half-maximal inhibitory concentration (IC50) (Table 2) is below 100 nM. Regarding `Cc1ccc(F)c(-c2cccc3c2CC[C@@H]3Oc2cc(OCc3cncc(C#N)c3)c(CN[C@@H](CO)C(=O)O)cc2Cl)c1` [Example 2.067], the IC50 (Table 2) is below 100 nM. With `N#Cc1cncc(COc2cc(O[C@H]3CCc4c(-c5ccccc5F)cccc43)c(Cl)cc2CN[C@@H]2CCCC[C@H]2O)c1` [Example 3.071], the IC50 (Table 3) is below 100 nM. Regarding `C[C@H](NCc1cc(Cl)c(O[C@H]2CCc3c(-c4ccc5c(c4Cl)OCCO5)cccc32)cc1OCc1cncc(C#N)c1)C(=O)O` [Example 2.163], the IC50 (Table 2) was in the range of 100 to 500 nM.

As to `Cn1ccnc1CNCc1cc(Cl)c(O[C@H]2CCc3c(-c4ccccc4F)cccc32)cc1OCc1cncc(C#N)c1` [Example 3.075], for the setting “Table 3”, the concentration for half-maximal inhibition (IC50) was in the range of 100 to 500 nM. As to `CS(=O)(=O)c1cncc(COc2cc(O[C@H]3CCc4c(-c5ccc6c(c5F)OCCO6)cccc43)c(Cl)cc2CN[C@@H](CO)C(=O)O)c1` [Example 3.010], for the setting “Table 3”, the IC50 is below 100 nM. On the same count and under the same terms, the value for `N#Cc1cncc(COc2cc(O[C@H]3CCc4c(-c5ccccc5F)cccc43)c(Cl)cc2CNCCCN2CCN(CCO)CC2)c1` [Example 3.089] was 100 to 500 nM. Turning to `N#Cc1cncc(COc2cc(O[C@H]3CCc4c(-c5ccccc5)cccc43)c(Cl)cc2CN[C@@H](CO)C(=O)O)c1` [Example 2.002], the IC50 (Table 2) was below 100 nM.

For `N#CCCCCOc1cc(O[C@H]2CCc3c(-c4ccccc4F)cccc32)c(Cl)cc1CN1CCC(O)CC1` [Example 2.090], the IC50 (Table 2) fell in the range of 100 to 500 nM. On the same count and under the same terms, under `N#Cc1cncc(COc2cc(O[C@@H]3CCc4c(-c5ccccc5F)cccc43)c(Cl)cc2CN[C@@H](CO)C(=O)O)c1` [Example 2.139] stands below 100 nM; under `CCC(O)C(NCc1cc(Cl)c(O[C@H]2CCc3c(-c4ccccc4F)cccc32)cc1OCc1cncc(C#N)c1)C(=O)O` (stereo partly drawn) [Example 2.125], below 100 nM; under `N#Cc1cncc(COc2cc(O[C@H]3CCc4c(-c5ccccc5)cccc43)c(Cl)cc2CNCc2ccn[nH]2)c1` [Example 1.015], 500 to 20000 nM. Same read-out and setting: under `N#Cc1cncc(COc2cc(O[C@@H]3c4cccc(-c5ccccc5F)c4C[C@H]3F)c(Cl)cc2CN2CCC(O)CC2)c1` [Example 2.148] stands 500 to 20000 nM.

For `N#Cc1cncc(COc2cc(O[C@H]3CCc4c(-c5cc6c(cc5F)OCCO6)cccc43)c(Cl)cc2CN[C@H](O)CO)c1` [Example 3.007], the half-maximal inhibitory concentration (IC50) (Table 3) is below 100 nM. With `N#Cc1cncc(COc2cc(O[C@H]3CCc4c(-c5ccccc5F)cccc43)c(Cl)cc2CNC(CO)(CO)CO)c1` [Example 3.130], the IC50 (Table 3) was below 100 nM. Take `N#Cc1cncc(COc2cc(O[C@H]3CCc4c(-c5ccccc5F)cccc43)c(Cl)cc2CN2C[C@H](O)[C@@H](O)[C@H](O)[C@H]2CO)c1` [Example 3.073]: where the note is “Table 3”, the half-inhibitory concentration (IC50) was 500 to 20000 nM. Regarding `N#Cc1cncc(COc2cc(O[C@H]3CCc4c(-c5ccccc5F)cccc43)c(Cl)cc2CN[C@@H]2[C@@H]3CC[C@@H](C3)[C@@H]2C(=O)O)c1` [Example 2.174], where the note is “Table 2”, the half-inhibitory concentration (IC50) fell in the range of 500 to 20000 nM. For `C[C@H](NC(=O)[C@H](C)NCc1cc(Cl)c(O[C@H]2CCc3c(-c4ccccc4F)cccc32)cc1OCc1cncc(C#N)c1)C(=O)O` [Example 3.060], the IC50 (Table 3) is below 100 nM. Take `CC(C)(O)CNCc1cc(Cl)c(O[C@H]2CCc3c(-c4ccccc4F)cccc32)cc1OCc1cncc(C#N)c1` [Example 2.143]: under “Table 2”, the IC50 fell in the range of 100 to 500 nM. For `N#Cc1cncc(COc2cc(O[C@H]3CCc4c(-c5ccccc5F)cccc43)c(Cl)cc2CN[C@@H](CC(=O)O)C(=O)O)c1` [Example 3.105], under “Table 3”, the concentration for half-maximal inhibition (IC50) lay in the range of 100 to 500 nM.

`N#Cc1cncc(COc2cc(O[C@H]3CCc4c(-c5ccccc5F)cccc43)c(Cl)cc2CN2CCCC(O)C2)c1` (stereo partly drawn) [Example 2.030]: for the setting “Table 2”, the IC50 was in the range of 100 to 500 nM. On the same count and under the same terms, under `C[C@@H](O)[C@H](NCc1cc(Cl)c(O[C@H]2CCc3c(-c4ccc5c(c4Cl)OCCO5)cccc32)cc1OCc1cncc(C#N)c1)C(=O)O` [Example 2.160] stands below 100 nM; under `COc1cccc(-c2cccc3c2CCC3CCOc2cc(OCc3cncc(C#N)c3)c(CN[C@@H](CO)C(=O)O)cc2Cl)c1F` (stereo partly drawn) [Example 2.085], 500 to 20000 nM. Turning to `COC(=O)[C@](C)(CO)NCc1cc(Cl)c(O[C@H]2CCc3c(-c4ccc5c(c4F)OCCO5)cccc32)cc1OCc1cncc(C#N)c1` [Example 3.035], for the setting “Table 3”, the 50% inhibitory concentration (IC50) is 100 to 500 nM. `CCOc1cc(O[C@H]2CCc3c(-c4ccccc4F)cccc32)c(Cl)cc1CN[C@H](CO)C(=O)O` [Example 2.155]: the concentration for half-maximal inhibition (IC50) (Table 2) fell in the range of 100 to 500 nM. Take `C[C@@H](NCc1cc(Cl)c(O[C@H]2CCc3c(-c4ccccc4F)cccc32)cc1OCc1cncc(C#N)c1)C(=O)O` [Example 2.141]: under “Table 2”, the IC50 is below 100 nM. The same measure, in the same setting: the value for `CCOc1cc(O[C@H]2CCc3c(-c4ccccc4F)cccc32)c(Cl)cc1CN[C@H](C(=O)O)[C@@H](C)O` [Example 2.157] was 100 to 500 nM. Consider `C[C@@H](O)[C@@H](CC(=O)O)NCc1cc(Cl)c(O[C@H]2CCc3c(-c4ccccc4F)cccc32)cc1OCc1cncc(C#N)c1` [Example 3.116], for which, under “Table 3”, the IC50 lay within 500 to 20000 nM. Take `N#Cc1cncc(COc2cc(O[C@H]3CCc4c(-c5ccccc5F)cccc43)c(Cl)cc2CNC(CO)C(=O)NO)c1` (stereo partly drawn) [Example 2.166]: for the setting “Table 2”, the half-maximal inhibitory concentration (IC50) fell in the range of 100 to 500 nM.

With `O=C(O)c1cncc(COc2cc(O[C@H]3CCc4c(-c5ccc6c(c5F)OCCO6)cccc43)c(Cl)cc2CN[C@@H](CO)C(=O)O)c1` [Example 3.030], under “Table 3”, the IC50 fell in the range of 100 to 500 nM.

As for `O=C(O)[C@H](CO)NCc1cc(Cl)c(O[C@H]2CCc3c(-c4ccc5c(c4F)OCCO5)cccc32)cc1OCc1cc(Cl)cc(Cl)c1` [Example 3.014], where the note is “Table 3”, the IC50 lay in the range of 500 to 20000 nM.

Consider `Cc1cncc(COc2cc(O[C@H]3CCc4c(-c5ccc6c(c5F)OCCO6)cccc43)c(Cl)cc2CN[C@@H](CO)C(=O)O)c1` [Example 3.025], for which the IC50 (Table 3) was below 100 nM.

Turning to `N#Cc1cncc(COc2cc(O[C@H]3CCc4c(-c5ccccc5F)cccc43)c(Cl)cc2CNCc2cnn[nH]2)c1` [Example 2.025], the IC50 (Table 2) was in the range of 100 to 500 nM.

Consider `COCc1ccccc1-c1cccc2c1CC[C@@H]2Oc1cc(OCc2cncc(C#N)c2)c(CN[C@@H](CO)C(=O)O)cc1Cl` [Example 3.115], for which the IC50 (Table 3) is 500 to 20000 nM.

As for `N#Cc1cncc(COc2cc(O[C@H]3CCc4c(C5=CCCCC5)cccc43)c(Cl)cc2CN[C@@H](CO)C(=O)O)c1` [Example 3.117], the IC50 (Table 3) is below 100 nM. Take `CCOC(=O)[C@](C)(CO)NCc1cc(Cl)c(O[C@H]2CCc3c(-c4ccc5c(c4F)OCCO5)cccc32)cc1OCc1cncc(C#N)c1` [Example 3.031]: the IC50 (Table 3) was 100 to 500 nM.

As for `N#Cc1cncc(COc2cc(O[C@H]3CCc4c(-c5ccccc5F)cccc43)c(Cl)cc2CN[C@@H](Cc2c[nH]cn2)C(=O)NCC(=O)NCC(=O)O)c1` [Example 3.056], the IC50 (Table 3) lay in the range of 500 to 20000 nM. As to `N#Cc1cncc(COc2cc(OC3CCc4c(-c5ccccc5)cccc43)c(Cl)cc2CNC[C@@H](O)CC(=O)O)c1` (stereo partly drawn) [Example 1.002], the IC50 (Table 2) was 100 to 500 nM. In the case of `N#Cc1cncc(COc2cc(O[C@H]3CCc4c(-c5ccccc5O)cccc43)c(Cl)cc2CN[C@@H](CO)C(=O)O)c1` [Example 3.079], where the note is “Table 3”, the IC50 lay within 100 to 500 nM.

For the compound `CCOc1cc(O[C@H]2CCc3c(-c4ccc5c(c4F)OCCO5)cccc32)c(Cl)cc1CN1CCC(O)CC1` [Example 2.059], the 50% inhibitory concentration (IC50) (Table 2) was in the range of 500 to 20000 nM. Consider `CC(C)(C)OC(=O)[C@H](CO)NCc1cc(Cl)c(O[C@H]2CCc3c(-c4ccccc4F)cccc32)cc1OCc1cncc(C#N)c1` [Example 3.136], for which the IC50 (Table 3) fell in the range of 500 to 20000 nM.

With `N#Cc1cncc(COc2cc(O[C@H]3CCc4c(-c5ccc6c(c5F)OCCO6)cccc43)c(Cl)cc2CN[C@@H](CO)C(=O)O)c1` [Example 3.008], the IC50 (Table 3) was below 100 nM.

With `Cc1cccc(-c2cccc3c2CC[C@@H]3Oc2cc(OCc3cncc(C#N)c3)c(CN[C@@H](CO)C(=O)O)cc2Cl)c1` [Example 2.012], the IC50 (Table 2) was in the range of 500 to 20000 nM. For `OC1CCN(Cc2cc(Cl)c(O[C@H]3CCc4c(-c5ccccc5F)cccc43)cc2OCc2ccc(C(F)(F)F)nc2)CC1` [Example 2.095], where the note is “Table 2”, the concentration for half-maximal inhibition (IC50) lay in the range of 500 to 20000 nM. On to `N#Cc1cc(C#N)cc(COc2cc(O[C@H]3CCc4c(-c5ccc6c(c5F)OCCO6)cccc43)c(Cl)cc2CN[C@@H](CO)C(=O)O)c1` [Example 3.006], for which the IC50 (Table 3) was below 100 nM. `CCOc1cc(O[C@H]2CCc3c(-c4ccccc4F)cccc32)c(Cl)cc1CN[C@H](C(=O)O)[C@@H](C)O` [Example 2.158]: the IC50 (Table 2) was 100 to 500 nM. Take `N#Cc1cncc(COc2cc(O[C@H]3CCc4c(-c5ccccc5F)cccc43)c(Cl)cc2CNCc2ncc(-c3ccccc3)[nH]2)c1` [Example 3.081]: under “Table 3”, the half-inhibitory concentration (IC50) was 500 to 20000 nM.

`N#Cc1cncc(COc2cc(O[C@H]3CCc4c(-c5ccccc5F)cccc43)c(Cl)cc2CN[C@H]2CCCC[C@@H]2O)c1` [Example 3.021]: under “Table 3”, the IC50 is below 100 nM.

As to `COc1cccc(-c2ccc(F)c3c2CCC3Oc2cc(OCc3cncc(C#N)c3)c(CN[C@@H](CO)C(=O)O)cc2Cl)c1F` (stereo partly drawn) [Example 2.047], the IC50 (Table 2) was below 100 nM. For the compound `N#Cc1cncc(COc2cc(O[C@H]3CCc4c(-c5ccccc5F)cccc43)c(Cl)cc2CN[C@@H]2CCC[C@H]2O)c1` [Example 3.018], the IC50 (Table 3) is below 100 nM.
